{"source": "ChEMBL document CHEMBL1155491", "about": "“Acylurea connected straight chain hydroxamates as novel histone deacetylase inhibitors: Synthesis, SAR, and in vivo antitumor activity” (Bioorg Med Chem Lett, 2010)", "key": {"Histone deacetylase 2": {"biological_target": "Histone deacetylase 2 (Homo sapiens, UniProt Q92769)", "sequence (Q92769 whole entry)": "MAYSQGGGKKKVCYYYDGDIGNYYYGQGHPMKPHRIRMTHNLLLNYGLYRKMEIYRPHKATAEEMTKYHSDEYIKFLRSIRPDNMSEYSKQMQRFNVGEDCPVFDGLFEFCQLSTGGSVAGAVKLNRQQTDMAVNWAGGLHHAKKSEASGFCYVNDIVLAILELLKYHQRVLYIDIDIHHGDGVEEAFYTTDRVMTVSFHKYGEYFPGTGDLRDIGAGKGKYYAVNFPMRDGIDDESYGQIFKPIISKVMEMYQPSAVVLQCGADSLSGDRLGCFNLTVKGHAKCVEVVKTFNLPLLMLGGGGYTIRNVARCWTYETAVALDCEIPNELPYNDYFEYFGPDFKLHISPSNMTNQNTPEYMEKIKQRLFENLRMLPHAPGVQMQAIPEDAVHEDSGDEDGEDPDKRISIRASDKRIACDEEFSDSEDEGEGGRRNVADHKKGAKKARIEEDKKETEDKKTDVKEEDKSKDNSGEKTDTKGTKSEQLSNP"}, "Histone deacetylase 3": {"biological_target": "Histone deacetylase 3 (Homo sapiens, UniProt O15379)", "sequence (O15379 whole entry)": "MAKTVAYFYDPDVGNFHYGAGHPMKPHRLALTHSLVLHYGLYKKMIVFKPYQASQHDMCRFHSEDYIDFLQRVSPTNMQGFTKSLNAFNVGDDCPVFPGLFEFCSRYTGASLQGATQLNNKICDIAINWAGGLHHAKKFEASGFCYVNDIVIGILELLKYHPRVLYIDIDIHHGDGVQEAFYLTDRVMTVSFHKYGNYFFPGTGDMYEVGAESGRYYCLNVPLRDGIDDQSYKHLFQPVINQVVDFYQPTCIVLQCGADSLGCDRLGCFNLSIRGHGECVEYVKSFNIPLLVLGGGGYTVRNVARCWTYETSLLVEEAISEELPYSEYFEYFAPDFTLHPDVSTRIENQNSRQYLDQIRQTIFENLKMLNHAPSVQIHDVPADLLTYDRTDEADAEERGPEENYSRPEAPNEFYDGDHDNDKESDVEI", "experiment": "Inhibition of HDAC3"}, "Histone deacetylase 4": {"biological_target": "Histone deacetylase 4 (Homo sapiens, UniProt P56524)", "sequence (P56524 whole entry)": "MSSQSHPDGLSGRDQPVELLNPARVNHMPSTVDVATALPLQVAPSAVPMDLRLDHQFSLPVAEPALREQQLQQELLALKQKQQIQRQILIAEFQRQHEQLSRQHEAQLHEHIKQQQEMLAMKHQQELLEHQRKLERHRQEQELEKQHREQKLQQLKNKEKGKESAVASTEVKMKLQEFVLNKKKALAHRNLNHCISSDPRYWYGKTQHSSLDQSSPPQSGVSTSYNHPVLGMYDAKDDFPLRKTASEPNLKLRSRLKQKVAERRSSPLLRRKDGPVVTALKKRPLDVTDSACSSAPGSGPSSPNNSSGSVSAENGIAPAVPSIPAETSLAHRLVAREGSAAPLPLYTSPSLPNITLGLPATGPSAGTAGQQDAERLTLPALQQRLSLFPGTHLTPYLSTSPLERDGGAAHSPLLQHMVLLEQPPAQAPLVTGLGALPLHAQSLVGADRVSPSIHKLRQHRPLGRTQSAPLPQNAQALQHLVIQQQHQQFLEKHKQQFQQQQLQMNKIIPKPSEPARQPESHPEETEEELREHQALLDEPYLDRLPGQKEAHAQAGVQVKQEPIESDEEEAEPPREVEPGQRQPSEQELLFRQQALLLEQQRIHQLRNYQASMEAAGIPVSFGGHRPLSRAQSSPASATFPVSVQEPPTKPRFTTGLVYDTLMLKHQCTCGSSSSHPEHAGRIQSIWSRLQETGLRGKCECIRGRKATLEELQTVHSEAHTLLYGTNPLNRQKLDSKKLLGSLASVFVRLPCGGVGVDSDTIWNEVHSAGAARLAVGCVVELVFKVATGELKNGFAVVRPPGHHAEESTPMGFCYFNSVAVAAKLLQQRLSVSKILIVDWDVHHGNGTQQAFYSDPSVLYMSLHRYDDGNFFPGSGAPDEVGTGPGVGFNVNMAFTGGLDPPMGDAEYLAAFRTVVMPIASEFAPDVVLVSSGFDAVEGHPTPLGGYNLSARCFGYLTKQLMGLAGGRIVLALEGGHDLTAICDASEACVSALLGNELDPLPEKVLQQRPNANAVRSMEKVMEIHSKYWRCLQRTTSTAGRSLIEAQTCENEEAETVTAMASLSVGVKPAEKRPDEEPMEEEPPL", "experiment": "Inhibition of HDAC4"}, "Histone deacetylase 5": {"biological_target": "Histone deacetylase 5 (Homo sapiens, UniProt Q9UQL6)", "sequence (Q9UQL6 whole entry)": "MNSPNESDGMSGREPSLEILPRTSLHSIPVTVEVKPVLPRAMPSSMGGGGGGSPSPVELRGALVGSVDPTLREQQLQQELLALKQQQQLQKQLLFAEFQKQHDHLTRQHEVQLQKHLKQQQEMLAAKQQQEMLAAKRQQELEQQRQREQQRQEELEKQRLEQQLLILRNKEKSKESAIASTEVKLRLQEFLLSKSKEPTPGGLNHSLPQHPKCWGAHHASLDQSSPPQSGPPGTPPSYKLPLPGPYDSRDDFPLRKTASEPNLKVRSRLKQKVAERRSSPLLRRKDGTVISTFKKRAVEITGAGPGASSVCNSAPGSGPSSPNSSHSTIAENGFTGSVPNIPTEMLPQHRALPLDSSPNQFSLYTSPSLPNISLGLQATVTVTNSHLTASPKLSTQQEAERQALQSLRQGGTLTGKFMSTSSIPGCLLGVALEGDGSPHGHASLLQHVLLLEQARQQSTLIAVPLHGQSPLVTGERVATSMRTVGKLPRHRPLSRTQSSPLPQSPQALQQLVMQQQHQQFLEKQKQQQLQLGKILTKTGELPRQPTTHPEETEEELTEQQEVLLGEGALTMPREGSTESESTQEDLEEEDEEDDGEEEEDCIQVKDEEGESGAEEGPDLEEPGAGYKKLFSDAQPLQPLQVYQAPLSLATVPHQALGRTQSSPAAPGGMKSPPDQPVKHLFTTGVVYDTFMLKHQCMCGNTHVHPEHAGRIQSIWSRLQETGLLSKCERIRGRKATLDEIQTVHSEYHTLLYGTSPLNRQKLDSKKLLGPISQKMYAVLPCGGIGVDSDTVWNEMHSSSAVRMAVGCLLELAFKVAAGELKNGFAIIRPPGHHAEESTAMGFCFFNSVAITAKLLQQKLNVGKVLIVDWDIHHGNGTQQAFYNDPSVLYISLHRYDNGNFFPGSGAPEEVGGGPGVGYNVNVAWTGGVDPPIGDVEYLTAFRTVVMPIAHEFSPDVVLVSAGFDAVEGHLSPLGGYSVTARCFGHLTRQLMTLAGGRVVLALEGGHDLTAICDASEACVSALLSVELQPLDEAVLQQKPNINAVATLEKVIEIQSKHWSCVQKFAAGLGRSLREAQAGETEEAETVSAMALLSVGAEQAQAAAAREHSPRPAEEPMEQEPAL", "experiment": "Inhibition of HDAC5"}, "[1]": {"biological_target": "T1, Protein deacetylase HDAC6 (Homo sapiens, UniProt Q9UBN7)", "T1 sequence (Q9UBN7 whole entry)": "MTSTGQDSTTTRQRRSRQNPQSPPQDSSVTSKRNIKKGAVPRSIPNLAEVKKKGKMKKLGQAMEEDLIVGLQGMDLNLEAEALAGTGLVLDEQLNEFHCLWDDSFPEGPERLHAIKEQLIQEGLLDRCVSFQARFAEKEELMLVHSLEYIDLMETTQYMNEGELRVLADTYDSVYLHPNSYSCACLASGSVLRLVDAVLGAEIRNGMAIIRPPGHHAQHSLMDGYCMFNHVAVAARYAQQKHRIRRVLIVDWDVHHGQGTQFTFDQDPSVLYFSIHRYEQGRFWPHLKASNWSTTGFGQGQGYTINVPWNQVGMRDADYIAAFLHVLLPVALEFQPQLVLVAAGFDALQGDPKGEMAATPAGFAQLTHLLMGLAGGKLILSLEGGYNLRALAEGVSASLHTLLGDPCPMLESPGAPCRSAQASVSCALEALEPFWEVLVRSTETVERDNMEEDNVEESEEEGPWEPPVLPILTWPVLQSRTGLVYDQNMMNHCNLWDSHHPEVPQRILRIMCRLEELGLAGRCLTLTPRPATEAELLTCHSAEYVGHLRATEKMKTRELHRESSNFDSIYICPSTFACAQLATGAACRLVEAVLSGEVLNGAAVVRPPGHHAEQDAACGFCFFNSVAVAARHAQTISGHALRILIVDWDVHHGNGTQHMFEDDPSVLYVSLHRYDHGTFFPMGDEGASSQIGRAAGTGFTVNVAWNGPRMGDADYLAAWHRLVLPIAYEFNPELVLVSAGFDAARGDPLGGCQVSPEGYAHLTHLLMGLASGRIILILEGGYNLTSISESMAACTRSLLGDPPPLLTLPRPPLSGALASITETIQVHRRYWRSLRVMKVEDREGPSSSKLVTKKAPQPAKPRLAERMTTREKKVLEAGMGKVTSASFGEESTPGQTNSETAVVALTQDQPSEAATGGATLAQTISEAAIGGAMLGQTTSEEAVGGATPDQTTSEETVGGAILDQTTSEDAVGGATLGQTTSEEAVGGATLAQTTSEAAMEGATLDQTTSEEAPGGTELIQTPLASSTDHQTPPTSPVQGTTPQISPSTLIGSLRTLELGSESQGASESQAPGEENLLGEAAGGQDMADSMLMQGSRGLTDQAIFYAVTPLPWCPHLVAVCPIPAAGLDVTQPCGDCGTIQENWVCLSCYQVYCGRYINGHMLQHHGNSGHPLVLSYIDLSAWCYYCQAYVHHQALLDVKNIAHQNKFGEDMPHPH", "experiment": "Inhibition of HDAC6"}, "Histone deacetylase 9": {"biological_target": "Histone deacetylase 9 (Homo sapiens, UniProt Q9UKV0)", "sequence (Q9UKV0 whole entry)": "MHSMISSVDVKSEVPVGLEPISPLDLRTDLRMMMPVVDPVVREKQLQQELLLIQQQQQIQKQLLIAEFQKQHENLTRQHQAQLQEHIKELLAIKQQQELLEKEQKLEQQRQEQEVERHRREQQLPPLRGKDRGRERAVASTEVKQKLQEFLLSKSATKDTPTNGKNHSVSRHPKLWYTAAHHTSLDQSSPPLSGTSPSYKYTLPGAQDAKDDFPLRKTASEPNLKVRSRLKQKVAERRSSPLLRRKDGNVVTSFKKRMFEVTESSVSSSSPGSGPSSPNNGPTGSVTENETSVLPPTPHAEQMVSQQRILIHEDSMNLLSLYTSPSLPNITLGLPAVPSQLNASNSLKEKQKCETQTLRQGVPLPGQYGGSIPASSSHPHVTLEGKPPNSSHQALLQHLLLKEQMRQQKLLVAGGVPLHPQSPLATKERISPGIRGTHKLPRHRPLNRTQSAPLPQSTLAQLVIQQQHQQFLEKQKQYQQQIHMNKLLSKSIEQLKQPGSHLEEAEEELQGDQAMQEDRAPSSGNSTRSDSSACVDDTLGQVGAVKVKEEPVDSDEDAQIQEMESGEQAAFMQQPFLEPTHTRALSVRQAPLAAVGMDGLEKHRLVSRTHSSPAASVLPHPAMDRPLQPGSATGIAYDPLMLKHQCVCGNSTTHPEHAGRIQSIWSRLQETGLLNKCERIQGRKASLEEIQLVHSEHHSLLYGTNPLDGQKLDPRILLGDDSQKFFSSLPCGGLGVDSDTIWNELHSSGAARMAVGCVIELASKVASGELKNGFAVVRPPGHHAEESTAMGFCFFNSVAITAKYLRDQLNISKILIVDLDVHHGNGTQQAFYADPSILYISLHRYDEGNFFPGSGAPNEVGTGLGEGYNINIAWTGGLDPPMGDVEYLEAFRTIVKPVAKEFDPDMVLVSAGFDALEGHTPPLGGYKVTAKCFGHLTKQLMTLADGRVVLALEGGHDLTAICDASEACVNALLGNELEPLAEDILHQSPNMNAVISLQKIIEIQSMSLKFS", "experiment": "Inhibition of HDAC9"}, "[2]": {"biological_target": "T2, Polyamine deacetylase HDAC10 (Homo sapiens, UniProt Q969S8)", "T2 sequence (Q969S8 whole entry)": "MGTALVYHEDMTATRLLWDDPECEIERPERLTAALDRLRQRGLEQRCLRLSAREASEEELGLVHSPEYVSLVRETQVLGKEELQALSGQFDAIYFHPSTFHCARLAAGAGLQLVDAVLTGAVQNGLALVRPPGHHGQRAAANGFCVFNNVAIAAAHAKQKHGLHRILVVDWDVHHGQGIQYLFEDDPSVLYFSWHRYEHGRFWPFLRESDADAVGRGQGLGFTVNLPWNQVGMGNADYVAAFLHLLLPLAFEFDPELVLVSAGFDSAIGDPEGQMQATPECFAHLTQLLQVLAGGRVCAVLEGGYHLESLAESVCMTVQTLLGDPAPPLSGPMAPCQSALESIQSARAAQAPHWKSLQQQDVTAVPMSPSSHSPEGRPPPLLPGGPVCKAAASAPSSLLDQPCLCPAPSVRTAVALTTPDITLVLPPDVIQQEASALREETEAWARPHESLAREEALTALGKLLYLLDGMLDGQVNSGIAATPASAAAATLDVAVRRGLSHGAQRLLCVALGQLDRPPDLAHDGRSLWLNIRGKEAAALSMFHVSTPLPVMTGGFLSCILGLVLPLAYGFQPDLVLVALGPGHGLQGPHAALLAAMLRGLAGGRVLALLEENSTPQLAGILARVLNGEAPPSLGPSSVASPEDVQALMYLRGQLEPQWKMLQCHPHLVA", "experiment": "Inhibition of HDAC10"}, "HCT-116 [3]": {"test_system": "HCT-116", "experiment": "Antiproliferative activity against human HCT116 cells", "format": "functional, cell-based"}, "A2780": {"test_system": "A2780", "experiment": "Antiproliferative activity against human A2780 cells", "format": "functional, cell-based"}, "PC-3 [4]": {"test_system": "PC-3", "experiment": "Antiproliferative activity against human PC3 cells", "format": "functional, cell-based"}, "[5]": {"experiment": "Solubility at pH 7", "format": "physicochemical", "conditions": "buffer"}, "[6]": {"experiment": "Half life in human liver microsome", "format": "ADME", "conditions": "liver microsomes"}, "[7]": {"experiment": "Half life in rat liver microsome", "format": "ADME", "conditions": "liver microsomes"}, "[8]": {"experiment": "Half life in mouse liver microsome", "format": "ADME", "conditions": "liver microsomes"}, "[9]": {"experiment": "Octanol-water distribution coefficient, log D of the compound", "format": "physicochemical"}, "NCI-H522": {"test_system": "NCI-H522", "experiment": "Antiproliferative activity against human NCI-H522 cells", "format": "functional, cell-based"}, "[10]": {"experiment": "Apparent permeability from apical to basolateral side of Caco-2 cells", "format": "ADME, cell-based", "conditions": "human"}, "[11]": {"experiment": "Clearance in mouse at 10 mg/kg, iv", "format": "ADME, organism-based", "design": "dose 10 mg/kg, route intravenous", "conditions": "in vivo"}, "[12]": {"experiment": "Volume of distribution at steady state in mouse at 10 mg/kg, iv", "format": "ADME, organism-based", "design": "dose 10 mg/kg, route intravenous", "conditions": "in vivo, read-out: Vdss"}, "[13]": {"experiment": "Toxicity in human PC3 cells xenografted nude mouse", "format": "organism-based, PC-3", "conditions": "in vivo"}, "HCT-116 [14]": {"test_system": "HCT-116", "experiment": "Antitumor activity against human HCT116 cells xenografted in BALB/c mouse at 100 mg/kg, po after 21 days", "format": "functional", "conditions": "HCT-116, 504 h, read-out: TGI"}, "PC-3 [15]": {"test_system": "PC-3", "experiment": "Antitumor activity against human PC3 cells xenografted in nude mouse assessed as inhibition of tumor growth at 200 mg/kg, ip administered for 21 days measured or day 22", "format": "functional", "conditions": "PC-3, ip, route intraperitoneal, read-out: TGI"}, "PC-3 [16]": {"test_system": "PC-3", "experiment": "animal or person", "format": "functional, Homo sapiens", "conditions": "Mus musculus, PC-3, ip, route intraperitoneal, read-out: TGI"}, "Mus musculus": {"test_system": "Mus musculus", "experiment": "Toxicity in human HCT116 cells xenografted BALB/c mouse at 200 mg/kg, po", "format": "organism-based, HCT-116", "design": "dose 200 mg/kg, route oral", "conditions": "in vivo"}, "Histone deacetylase 1 [17]": {"biological_target": "T3, Histone deacetylase 1 (Homo sapiens, UniProt Q13547)", "T3 sequence (Q13547 whole entry)": "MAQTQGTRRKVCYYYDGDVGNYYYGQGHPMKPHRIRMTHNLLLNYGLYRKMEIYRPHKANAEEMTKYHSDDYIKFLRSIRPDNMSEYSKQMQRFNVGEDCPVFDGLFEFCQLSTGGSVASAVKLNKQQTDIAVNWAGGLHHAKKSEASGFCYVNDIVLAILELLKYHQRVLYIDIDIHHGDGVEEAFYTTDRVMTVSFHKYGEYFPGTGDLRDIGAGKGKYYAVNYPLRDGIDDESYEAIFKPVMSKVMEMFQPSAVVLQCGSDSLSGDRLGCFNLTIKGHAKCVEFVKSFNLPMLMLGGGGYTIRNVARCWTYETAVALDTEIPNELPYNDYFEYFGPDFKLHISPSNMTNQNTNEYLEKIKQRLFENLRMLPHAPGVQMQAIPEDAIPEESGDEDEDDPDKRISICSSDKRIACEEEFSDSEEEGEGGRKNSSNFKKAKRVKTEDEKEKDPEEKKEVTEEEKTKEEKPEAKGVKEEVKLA"}, "Histone deacetylase 1 [18]": {"biological_target": "T3, Histone deacetylase 1", "remark": "listed apart in the source", "description": "Inhibition of HDAC1 in human COLO205 cells assessed as induction of histone H3 acetylation"}, "[19]": {"experiment": "Oral bioavailability in mouse at 50 mg/kg, po", "conditions": "in vivo"}}, "data": [{"smiles": "O=C(CCCCCNC(=O)NC(=O)c1ccccc1)NO", "values": [{"measurement": "Ki", "setting": "Histone deacetylase 2", "value": 44, "unit": "nM"}, {"measurement": "Ki", "setting": "Histone deacetylase 3", "value": 23, "unit": "nM"}, {"measurement": "Ki", "setting": "Histone deacetylase 4", "value": 20, "unit": "nM"}, {"measurement": "Ki", "setting": "Histone deacetylase 5", "value": 46, "unit": "nM"}, {"measurement": "Ki", "setting": "[1]", "value": 7, "unit": "nM"}, {"measurement": "Ki", "setting": "Histone deacetylase 9", "value": 55, "unit": "nM"}, {"measurement": "Ki", "setting": "[2]", "value": 40, "unit": "nM"}, {"measurement": "IC50", "setting": "HCT-116 [3]", "value": 1580, "unit": "nM"}, {"measurement": "IC50", "setting": "A2780", "value": 700, "unit": "nM"}, {"measurement": "IC50", "setting": "PC-3 [4]", "value": 740, "unit": "nM"}, {"measurement": "solubility", "setting": "[5]", "value": 177, "unit": "µM"}, {"measurement": "half-life", "setting": "[6]", "value": "> 1", "unit": "h"}, {"measurement": "half-life", "setting": "[7]", "value": "> 1", "unit": "h"}, {"measurement": "half-life", "setting": "[8]", "value": "> 0.5", "unit": "h"}, {"measurement": "logD", "setting": "[9]", "value": 0.75}, {"measurement": "IC50", "setting": "NCI-H522", "value": 500, "unit": "nM"}, {"measurement": "Papp A→B", "setting": "[10]", "value": 3.12, "unit": "×10⁻⁶ cm/s"}, {"measurement": "clearance", "setting": "[11]", "value": 83.8, "unit": "mL/min/kg"}, {"measurement": "Vd", "setting": "[12]", "value": 2.16, "unit": "L/kg"}, {"measurement": "MTD", "setting": "[13]", "value": 200, "unit": "mg/kg"}, {"measurement": "inhibition in vivo at 100 mg/kg", "setting": "HCT-116 [14]", "value": 80, "unit": "%"}, {"measurement": "inhibition in vivo at 200 mg/kg", "setting": "PC-3 [15]", "value": 73, "unit": "%"}, {"measurement": "inhibition in vivo at 160 mg/kg", "setting": "PC-3 [16]", "value": 57, "unit": "%"}, {"measurement": "Activity", "setting": "Mus musculus", "value": "Toxic"}, {"measurement": "IC50", "setting": "Histone deacetylase 1 [17]", "value": 53, "unit": "nM"}, {"measurement": "Ki", "setting": "Histone deacetylase 1 [17]", "value": 16, "unit": "nM"}, {"measurement": "IC50", "setting": "Histone deacetylase 1 [18]", "value": 2210, "unit": "nM"}, {"measurement": "bioavailability", "setting": "[19]", "value": 62, "unit": "%"}]}]}
